The values that follow come from patent publication US20250276979A1, “SARS-COV2 MAIN PROTEASE INHIBITORS” (Gilead Sciences, Inc., priority 2024, published 2025).

SMILES strings stand for the structures. pEC50: −log10 of the molar value.

The first assay deals with SARS-CoV-2-NLuc in A549-hACE2 cells. Put plainly: microbe, parasite or virus in culture. It counts as cell-based. As to conditions: Severe acute respiratory syndrome coronavirus 2, 48 h, read-out: MPro EC50.
In the case of `O=C1C[C@H](n2c(=O)[nH]c3cc(-c4ccccc4Cl)sc3c2=O)CCCN1` (single isomer, unassigned) [Example 21], the pEC50 is 7.65.
Same read-out and setting: the result for `O=C1C[C@@H](n2c(=O)[nH]c3cc(-c4ccccc4Cl)sc3c2=O)CCCN1` (single isomer, unassigned) [Example 22] reads 6.81.
Same read-out and setting: the result for `COc1ccc(Cl)c(-c2cc3[nH]c(=O)n([C@@H]4CCCNC(=O)C4)c(=O)c3s2)c1` (single isomer, unassigned) [Example 23] reads 7.90; that for `COc1ccc(Cl)c(-c2cc3[nH]c(=O)n([C@H]4CCCNC(=O)C4)c(=O)c3s2)c1` (single isomer, unassigned) [Example 24], 6.85.

Staying with this assay, now noted: Severe acute respiratory syndrome coronavirus 2, 48 h; read-out: MPro EC50.
As for `COc1cc(-c2cc3[nH]c(=O)n([C@@H]4CC(=O)NC[C@@H](C)C4)c(=O)c3s2)c(Cl)cc1F` (single isomer, unassigned) [Example 53], the pEC50 is 7.47.
The same measure, in the same setting: in the case of `COc1cc(-c2cc3[nH]c(=O)n([C@@H]4CC(=O)NC[C@H](C)C4)c(=O)c3s2)c(Cl)cc1F` (single isomer, unassigned) [Example 54] it was 7.69.
With `O=C1CC(n2c(=O)[nH]c3cc(-c4ccccc4Cl)sc3c2=O)CCN1` (stereo not drawn) [Example 1, 6-(2-chlorophenyl)-3-(2-oxopiperidin-4-yl)thieno[3,2-d]pyrimidine-2,4(1H,311)-dione], the pEC50 was 6.59.
Still for that read-out and setting: the result for `O=C1C[C@H](n2c(=O)[nH]c3cc(-c4ccccc4Cl)sc3c2=O)CN1` [Example 2, 6-(2-chlorophenyl)-3-[(3S)-5-oxopyrrolidin-3-yl]-1H-thieno[3,2-d]pyrimidine-2,4-dione] reads 4.45; that for `O=C1C[C@@H](n2c(=O)[nH]c3cc(-c4ccccc4Cl)sc3c2=O)CN1` [Example 3, 6-(2-chlorophenyl)-3-[(3R)-5-oxopyrrolidin-3-yl]-1H-thieno[3,2-d]pyrimidine-2,4-dione], 5.17.
Turning to `O=C1C[C@H](n2c(=O)[nH]c3cc(-c4ccccc4Cl)sc3c2=O)CCN1` [Example 4, (R)-6-(2-chlorophenyl)-3-(2-oxopiperidin-4-yl)thieno[3,2-d]pyrimidine-2,4(1H,3H)-dione], the pEC50 is 6.01.
Regarding `O=C1C[C@@H](n2c(=O)[nH]c3cc(-c4ccccc4Cl)sc3c2=O)CCN1` [Example 5, (S)-6-(2-chlorophenyl)-3-(2-oxopiperidin-4-yl)thieno[3,2-d]pyrimidine-2,4(1H,3H)-dione], the pEC50 was 7.03.
As for `O=C1C[C@H](n2c(=O)[nH]c3cc(-c4ccccc4Cl)ccc3c2=O)CCN1` [Example 6, (R)-7-(2-chlorophenyl)-3-(2-oxopiperidin-4-yl)quinazoline-2,4(1H,3H)-dione], the pEC50 was 4.52.
On the same count and under the same terms, the result for `COc1ccc(Cl)c(-c2cc3[nH]c(=O)n(C4CCNC(=O)C4)c(=O)c3s2)c1` (stereo not drawn) [Example 7, 6-(2-chloro-5-methoxy-phenyl)-3-(2-oxo-4-piperidyl)-1H-thieno[3,2-d]pyrimidine-2,4-dione] reads 7.11.
As for `O=C1CC(n2c(=O)[nH]c3cc(-c4ccccc4Cl)sc3c2=O)CCCN1` (stereo not drawn) [Example 8, 6-(2-chlorophenyl)-3-(2-oxoazepan-4-yl)thieno[3,2-d]pyrimidine-2,4(1H,3H)-dione], the pEC50 is 7.21.
For the molecule `O=C1CC(n2c(=O)[nH]c3cc(-c4ccccc4Cl)ccc3c2=O)CCCN1` (stereo not drawn) [Example 9, 7-(2-chlorophenyl)-3-(2-oxoazepan-4-yl)quinazoline-2,4(1H,3H)-dione], the pEC50 was 5.31.
Regarding `Cc1cc(-c2cccc(Cl)c2-c2cc3[nH]c(=O)n(C4CCNC(=O)C4)c(=O)c3s2)cnn1` (stereo not drawn) [Example 10, 6-(2-chloro-6-(6-methylpyridazin-4-yl)phenyl)-3-(2-oxopiperidin-4-yl)thieno[3,2-d]pyrimidine-2,4(1H,3H)-dione], the pEC50 is 5.26.
As for `Cc1cc(-c2cccc(Cl)c2-c2cc3[nH]c(=O)n(C4CCNC(=O)C4)c(=O)c3s2)cn2ncnc12` (stereo not drawn) [Example 11, 6-(2-chloro-6-(8-methyl-[1,2,4]triazolo[1,5-a]pyridin-6-yl)phenyl)-3-(2-oxopiperidin-4-yl)thieno[3,2-d]pyrimidine-2,4(1H,3H)-dione], the pEC50 was 5.92.
On the same count and under the same terms, in the case of `Cn1cc(-c2cccc(Cl)c2-c2cc3[nH]c(=O)n(C4CCNC(=O)C4)c(=O)c3s2)c(C(F)(F)F)n1` (stereo not drawn) [Example 12, 6-(2-chloro-6-(1-methyl-3-(trifluoromethyl)-1H-pyrazol-4-yl)phenyl)-3-(2-oxopiperidin-4-yl)thieno[3,2-d]pyrimidine-2,4(1H,3H)-dione] it was 6.12; in that of `O=C1CC(n2c(=O)[nH]c3cc(-c4c(Cl)cccc4-c4ccc5c(c4)OC(F)(F)O5)sc3c2=O)CCN1` (stereo not drawn) [Example 13, 6-(2-chloro-6-(2,2-difluorobenzo[d][1,3]dioxol-5-yl)phenyl)-3-(2-oxopiperidin-4-yl)thieno[3,2-d]pyrimidine-2,4(1H,3H)-dione], 6.81.
The same measure, in the same setting: the result for `COc1cc(-c2cc3[nH]c(=O)n(C4CCNC(=O)C4)c(=O)c3s2)c(Cl)cc1F` (stereo not drawn) [Example 14, 6-(2-chloro-4-fluoro-5-methoxyphenyl)-3-(2-oxopiperidin-4-yl)thieno[3,2-d]pyrimidine-2,4(1H,3H)-dione] reads 6.50.
In the case of `COc1cnc(Cl)c(-c2cc3[nH]c(=O)n(C4CCNC(=O)C4)c(=O)c3s2)c1` (stereo not drawn) [Example 15, 6-(2-chloro-5-methoxypyridin-3-yl)-3-(2-oxopiperidin-4-yl)thieno[3,2-d]pyrimidine-2,4(1H,3H)-dione], the pEC50 was 4.73.
With `COc1cc(-c2cc3[nH]c(=O)n([C@H]4CCNC(=O)C4)c(=O)c3s2)c(Cl)cc1F` [Example 16, (S)-6-(2-chloro-4-fluoro-5-methoxyphenyl)-3-(2-oxopiperidin-4-yl)thieno[3,2-d]pyrimidine-2,4(1H,3H)-dione], the pEC50 was 6.65.
Still for that read-out and setting: in the case of `COc1ccc(Cl)c(-c2cc3[nH]c(=O)n([C@H]4CCNC(=O)C4)c(=O)c3s2)c1` [Example 17, (S)-6-(2-chloro-5-methoxyphenyl)-3-(2-oxopiperidin-4-yl)thieno[3,2-d]pyrimidine-2,4(1H,3H)-dione] it was 7.07; in that of `COc1cc(Cl)c(-c2cc3[nH]c(=O)n([C@H]4CCNC(=O)C4)c(=O)c3s2)cc1OC` [Example 18, (S)-6-(2-chloro-4,5-dimethoxyphenyl)-3-(2-oxopiperidin-4-yl)thieno[3,2-d]pyrimidine-2,4(1H,3H)-dione], 5.94.
The same measure, in the same setting: the result for `Cc1noc(C)c1-c1cc2[nH]c(=O)n([C@H]3CCNC(=O)C3)c(=O)c2s1` [Example 19, (S)-6-(3,5-dimethylisoxazol-4-yl)-3-(2-oxopiperidin-4-yl)thieno[3,2-d]pyrimidine-2,4(1H,3H)-dione] reads 4.45; that for `COc1ccc(Cl)c(-c2cc3[nH]c(=O)n(C4CCCNC(=O)C4)c(=O)c3s2)c1` (stereo not drawn) [Example 20, 6-(2-chloro-5-methoxyphenyl)-3-(2-oxoazepan-4-yl)thieno[3,2-d]pyrimidine-2,4(1H,3H)-dione], 7.25; that for `COc1ccc(C#N)c(-c2cc3[nH]c(=O)n(C4CCCNC(=O)C4)c(=O)c3s2)c1` (stereo not drawn) [Example 25, 2-(2,4-dioxo-3-(2-oxoazepan-4-yl)-1,2,3,4-tetrahydrothieno[3,2-d]pyrimidin-6-yl)-4-methoxybenzonitrile], 6.36.

Broadly, the pEC50 is −log10 of the EC50, conventionally taken in molar units.
